In patent publication US20250326771A1, “PIPERAZINE DERIVATIVES USEFUL IN HIV THERAPY” (VIIV HEALTHCARE COMPANY, priority 2022, published 2025):
pIC50: −log10 of the molar value. Read-outs that look alike come from different tables or passages of the source.

How the values were obtained:
[1] = test system: Jurkat HIV-luciferase clones; test: Jurkat latency reversal assay; format: cell-based; conditions: Homo sapiens, 48 h; Jurkat latency reversal assay potency; read-out: Jurkat pEC50 (converted)
Method in brief: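 EC50 and maximal activation versus vehicle were derived by four-parameter logistic regression of luciferase luminescence. The luminescence was induced in pooled Jurkat HIV-luciferase clones C16, 115 and N6 (5,000 cells/well) after 48 h at 37° C with duplicate 14-point, 3-fold dilutions starting at 10 μM (0.5% DMSO).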

cIAP2-BIR3 = cIAP2-BIR3 (Homo sapiens (Human), UniProt Q13489); test: BIR binding assay (FRET competition), cIAP2 BIR3; conditions: for cIAP2 BIR3 vs BIR2 separation window: fold separation (FS) for cIAP2
cIAP1-BIR2 = cIAP1-BIR2 (Homo sapiens (Human), UniProt Q13490); test: BIR binding assay (FRET competition), cIAP1 BIR2
Method in brief: (§1)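 615/665 nm FRET ratio. Compound, His-domain and 200 nM AF647-SMAC peptide incubated 60 min, then 2 nM Eu-W1024 for 30 min. Domains: cIAP1-BIR3 50 nM; XIAP-BIR3 100 nM; cIAP1-BIR2, cIAP2-BIR2 325 nM each. 15-pt 3-fold series; variable-slope IC50.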

XIAP-BIR3 = XIAP-BIR3 (Homo sapiens (Human), UniProt P98170); test: BIR binding assay (FRET competition), XIAP BIR3; conditions: for XIAP BIR3 vs BIR2 separation window: fold separation (FS) for XIAP
Method in brief: as §1

cIAP2-BIR2 = cIAP2-BIR2 (Homo sapiens (Human), UniProt Q13489); test: BIR binding assay (FRET competition), cIAP2 BIR2
Method in brief: as §1

cIAP1-BIR3 = cIAP1-BIR3 (Homo sapiens (Human), UniProt Q13490); test: BIR binding assay (FRET competition), cIAP1 BIR3; conditions: for cIAP1 BIR3 vs BIR2 separation window: fold separation (FS) for cIAP1
Method in brief: as §1

XIAP-BIR2 = XIAP-BIR2 (Homo sapiens (Human), UniProt P98170); test: BIR binding assay (FRET competition), XIAP BIR2; conditions: read-out: XIAP BIR2 (pIC50) (converted)
Method in brief: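 Competitive TR-FRET used His-tagged XIAP-BIR2 (200 nM) and 200 nM AlexaFluor647-labelled AVPIAQKSE SMAC peptide in HEPES buffer pH 7.4 with CHAPS, glycerol and DTT, incubated 60 min before 30 min with 2 nM Eu-W1024. The 615/665 nm ratio from a 15-point, 3-fold series was fit with a four-parameter model for IC50/pIC50.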

Chain of cIAP1-BIR3 (Q13490 253-363): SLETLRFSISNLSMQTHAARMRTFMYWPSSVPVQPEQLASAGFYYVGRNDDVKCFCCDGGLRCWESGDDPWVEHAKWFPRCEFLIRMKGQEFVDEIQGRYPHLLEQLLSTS
Chain of cIAP2-BIR2 (Q13489 158-242): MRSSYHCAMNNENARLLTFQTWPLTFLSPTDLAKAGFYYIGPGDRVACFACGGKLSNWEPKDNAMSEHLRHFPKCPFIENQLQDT
Chain of cIAP2-BIR3 (Q13489 238-349): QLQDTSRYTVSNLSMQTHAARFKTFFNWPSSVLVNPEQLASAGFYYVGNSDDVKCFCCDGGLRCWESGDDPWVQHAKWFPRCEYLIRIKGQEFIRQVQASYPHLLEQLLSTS
Chain of XIAP-BIR2 (P98170 124-240): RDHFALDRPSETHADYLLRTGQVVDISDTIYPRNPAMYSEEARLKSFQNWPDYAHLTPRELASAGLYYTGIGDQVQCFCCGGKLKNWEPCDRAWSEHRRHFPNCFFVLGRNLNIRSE
Chain of XIAP-BIR3 (P98170 241-356): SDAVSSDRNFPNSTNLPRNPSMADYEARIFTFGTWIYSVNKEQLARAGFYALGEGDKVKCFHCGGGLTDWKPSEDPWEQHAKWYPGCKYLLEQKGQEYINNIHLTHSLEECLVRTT
Chain of cIAP1-BIR2 (Q13490 173-257): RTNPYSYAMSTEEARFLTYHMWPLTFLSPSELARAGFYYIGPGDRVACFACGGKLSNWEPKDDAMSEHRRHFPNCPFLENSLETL

| SMILES | EC50 [1] | pIC50 (cIAP2-BIR3) | cIAP2 BIR3 vs BIR2 separation window (cIAP2-BIR3) | pIC50 (cIAP1-BIR2) | pIC50 (XIAP-BIR3) | XIAP BIR3 vs BIR2 separation window (XIAP-BIR3) | pIC50 (cIAP2-BIR2) | pIC50 (cIAP1-BIR3) | cIAP1 BIR3 vs BIR2 separation window (cIAP1-BIR3) | IC50 (XIAP-BIR2; FRET competition binding) | IC50 (XIAP-BIR2; FRET competition) |
| --- | --- | --- | --- | --- | --- | --- | --- | --- | --- | --- | --- |
| C[C@@H]1CN(CC(=O)N2CC(C)(C)c3[nH]c(=O)c(Cc4ccc(F)cc4)cc32)[C@@H](CN2CCN(Cc3c(F)c(F)c(CN4CCN(C[C@H]5CN[C@H](C)CN5CC(=O)N5CC(C)(C)c6[nH]c(=O)c(Cc7ccc(F)cc7)cc65)[C@H](C)C4)c(F)c3F)C[C@H]2C)CN1 [Example 28, 1,1′-(2,2′-((3R,3′R,6R,6′R)-(((2R,2′R)-((perfluoro-1,4-phenylene)bis(methylene))bis(2-methylpiperazine-4,1-diyl))bis(methylene))bis(3-methylpiperazine-6,1-diyl))bis(acetyl))bis(6-(4-fluorobenzyl)-3,3-dimethyl-1,2,3,4-tetrahydro-5H-pyrrolo [3,2-b]pyridin-5-one)] | 316 to 3310 nM | 7.50 to 7.80 | +++ (10,000>FS>1,000) | 5.50 to 6.00 | 6.30 to 7.50 | +++ (10,000>FS>1,000) | 5.00 to 5.50 | 7.50 to 7.80 | +++ (10,000>FS>1,000) | 10000 to 51300 nM | – |
| C[C@@H]1CN(CC(=O)N2CC(C)(C)c3[nH]c(=O)c(Cc4ccc(F)cc4)cc32)[C@@H](CN2CCC(CN(C)C(=O)c3ccc(C(=O)N(C)CC4CCN(C[C@H]5CN[C@H](C)CN5CC(=O)N5CC(C)(C)c6[nH]c(=O)c(Cc7ccc(F)cc7)cc65)CC4)cc3)CC2)CN1 [Example 96, N^1,N^4-bis((1-(((2R,5R)-1-(2-(6-(4-fluorobenzyl)-3,3-dimethyl-5-oxo-2,3,4,5-tetrahydro-1H-pyrrolo[3,2-b]pyridin-1-yl)-2-oxoethyl)-5-methylpiperazin-2-yl)methyl)piperidin-4-yl)methyl)-N^1,N^4-dimethylterephthalamide] | 63.1 to 316 nM | 7.80 to 8.10 | +++ (10,000>FS>1,000) | 5.50 to 6.00 | 7.80 to 8.10 | ++++ (FS>10,000) | 5.50 to 6.00 | 8.10 to 8.86 | +++ (10,000>FS>1,000) | 10000 to 51300 nM | – |
| C[C@@H]1CN(CC(=O)N2CC(C)(C)c3[nH]c(=O)c(Cc4ccc(F)cc4)cc32)[C@@H](CN2CCO[C@@H](C(=O)NCc3ccc(CNC(=O)[C@H]4CN(C[C@H]5CN[C@H](C)CN5CC(=O)N5CC(C)(C)c6[nH]c(=O)c(Cc7ccc(F)cc7)cc65)CCO4)cc3)C2)CN1 [Example 111, (2R,2′R)-N,N′-(1,4-phenylenebis(methylene))bis(4-(((2R,5R)-1-(2-(6-(4-fluorobenzyl)-3,3-dimethyl-5-oxo-2,3,4,5-tetrahydro-1H-pyrrolo[3,2-b]pyridin-1-yl)-2-oxoethyl)-5-methylpiperazin-2-yl)methyl)morpholine-2-carboxamide)] | 12.6 to 63.1 nM | 7.80 to 8.10 | +++ (10,000>FS>1,000) | 5.00 to 5.50 | 6.30 to 7.50 | +++ (10,000>FS>1,000) | 5.00 to 5.50 | 7.80 to 8.10 | +++ (10,000>FS>1,000) | 10000 to 51300 nM | – |
| Cc1ccc(Oc2cc3c([nH]c2=O)C(C)(C)CN3C(=O)CN2C[C@@H](C)NC[C@@H]2CN2CCO[C@H](C(=O)NCc3ccc(CNC(=O)[C@@H]4CN(C[C@H]5CN[C@H](C)CN5CC(=O)N5CC(C)(C)c6[nH]c(=O)c(Oc7ccc(C)cc7)cc65)CCO4)cc3)C2)cc1 [Compound 184, (2S,2′S)-N,N′-(1,4-phenylenebis(methylene)) bis(4-(((2R,5R)-1-(2-(3,3-dimethyl-5-oxo-6-(p-tolyloxy)-2,3,4,5-tetrahydro-1H-pyrrolo[3,2-b]pyridin-1-yl)-2-oxoethyl)-5-methylpiperazin-2-yl)methyl)morpholine-2-carboxamide)] | 316 to 3310 nM | 8.10 to 8.86 | ++++ (FS>10,000) | 5.00 to 5.50 | 6.30 to 7.50 | +++ (10,000>FS>1,000) | 5.00 to 5.50 | 7.80 to 8.10 | +++ (10,000>FS>1,000) | – | 10000 to 51300 nM |
| C[C@@H]1CN(CC(=O)N2CC(C)(C)c3[nH]c(=O)c(Cc4ccc(F)cc4)cc32)[C@@H](CN2CCN(C(=O)c3ccnc(-c4cc(C(=O)N5CCN(C[C@H]6CN[C@H](C)CN6CC(=O)N6CC(C)(C)c7[nH]c(=O)c(Cc8ccc(F)cc8)cc76)[C@H](C)C5)ccn4)c3)C[C@H]2C)CN1 [Example 23, 1,1′-(2,2′-((3R,3′R,6R,6′R)-(((2R,2′R)-([2,2′-bipyridine]-4,4′-dicarbonyl)bis(2-methylpiperazine-4,1-diyl))bis(methylene))bis(3-methylpiperazine-6,1-diyl))bis(acetyl))bis(6-(4-fluorobenzyl)-3,3-dimethyl-1,2,3,4-tetrahydro-5H-pyrrolo[3,2-b]pyridin-5-one)] | 63.1 to 316 nM | 8.10 to 8.86 | – | 5.50 to 6.00 | 8.10 to 8.86 | – | 5.50 to 6.00 | 8.10 to 8.86 | – | 10000 to 51300 nM | – |
| C[C@@H]1CN(CC(=O)N2CC(C)(C)c3[nH]c(=O)c(Cc4ccc(F)cc4)cc32)[C@@H](CN2CCO[C@H](C(=O)N(C)CCCCN(C)C(=O)[C@@H]3CN(C[C@H]4CN[C@H](C)CN4CC(=O)N4CC(C)(C)c5[nH]c(=O)c(Cc6ccc(F)cc6)cc54)CCO3)C2)CN1 [Example 127, (2S,2'S)-N,N′-(butane-1,4-diyl)bis(4-(((2R,5R)-1-(2-(6-(4-fluorobenzyl)-3,3-dimethyl-5-oxo-2,3,4,5-tetrahydro-1H-pyrrolo[3,2-b]pyridin-1-yl)-2-oxoethyl)-5-methylpiperazin-2-yl)methyl)-N-methylmorpholine-2-carboxamide)] | 63.1 to 316 nM | 7.80 to 8.10 | +++ (10,000>FS>1,000) | 5.50 to 6.00 | 7.80 to 8.10 | ++++ (FS>10,000) | 5.50 to 6.00 | 7.80 to 8.10 | +++ (10,000>FS>1,000) | 10000 to 51300 nM | – |
| C[C@@H]1CN(CC(=O)N2CC(C)(C)c3[nH]c(=O)c(Cc4cc(F)c(F)cc4F)cc32)[C@@H](CN2CCO[C@H](C(=O)NCc3ccc(CNC(=O)[C@@H]4CN(C[C@H]5CN[C@H](C)CN5CC(=O)N5CC(C)(C)c6[nH]c(=O)c(Cc7cc(F)c(F)cc7F)cc65)CCO4)cc3)C2)CN1 [Compound 175, (2S,2′S)-N,N′-(1,4-phenylenebis(methylene)) bis(4-(((2R,5R)-1-(2-(3,3-dimethyl-5-oxo-6-(2,4,5-trifluorobenzyl)-2,3,4,5-tetrahydro-1H-pyrrolo[3,2-b]pyridin-1-yl)-2-oxoethyl)-5-methylpiperazin-2-yl)methyl)morpholine-2-carboxamide)] | 0.49 to 12.6 nM | 7.80 to 8.10 | +++ (10,000>FS>1,000) | 5.50 to 6.00 | 7.50 to 7.80 | ++++ (FS>10,000) | 5.00 to 5.50 | 7.50 to 7.80 | +++ (10,000>FS>1,000) | – | 10000 to 51300 nM |
| Cc1ccc(Cc2cc3c([nH]c2=O)C(C)(C)CN3C(=O)CN2C[C@@H](C)NC[C@@H]2CN2CCO[C@H](C(=O)NCc3ccc(CNC(=O)[C@@H]4CN(C[C@H]5CN[C@H](C)CN5CC(=O)N5CC(C)(C)c6[nH]c(=O)c(Cc7ccc(C)cc7)cc65)CCO4)cc3)C2)cc1 [Compound 163, (2S,2′S)-N,N′-(1,4-phenylenebis(methylene))bis(4-(((2R,5R)-1-(2-(3,3-dimethyl-6-(4-methylbenzyl)-5-oxo-2,3,4,5-tetrahydro-1H-pyrrolo[3,2-b]pyridin-1-yl)-2-oxoethyl)-5-methylpiperazin-2-yl)methyl)morpholine-2-carboxamide)] | 12.6 to 63.1 nM | 8.10 to 8.86 | +++ (10,000>FS>1,000) | 6.00 to 7.65 | 7.80 to 8.10 | ++++ (FS>10,000) | 6.00 to 7.65 | 8.10 to 8.86 | ++ (1,000>FS>100) | – | 10000 to 51300 nM |
